Source: the NIST ThermoML archive (doi:10.1021/je7005743)
Numbers after ± are expanded uncertainties.

Columns and labels:
[1] = excess molar enthalpy (molar enthalpy of mixing); xn = mol fraction of the nth substance listed; settings: 303.15 K, 101 kPa, Liquid, Flow calorimetry
[2] = 298.15 K; 101.33 kPa; Liquid; Pycnometric method

CC(C)CC(C)(C)C [2,2,4-trimethylpentane] + CCO
[1]
Settings | excess molar enthalpy [kcal/mol]
x2 = 0.1291 | 0.13 ± 0.00287
x2 = 0.2383 | 0.152 ± 0.00335
x2 = 0.332 | 0.158 ± 0.00335
x2 = 0.4132 | 0.157 ± 0.00335
x2 = 0.4842 | 0.153 ± 0.00335
x2 = 0.5469 | 0.146 ± 0.00311
x2 = 0.6026 | 0.138 ± 0.00311
x2 = 0.6525 | 0.129 ± 0.00287
x2 = 0.6974 | 0.12 ± 0.00263
x2 = 0.738 | 0.11 ± 0.00239
x2 = 0.7749 | 0.1 ± 0.00217
x2 = 0.8086 | 0.0898 ± 0.00196
x2 = 0.8395 | 0.0797 ± 0.00174
x2 = 0.8679 | 0.069 ± 0.00153
x2 = 0.8942 | 0.0582 ± 0.00129
x2 = 0.9185 | 0.0473 ± 0.00108
x2 = 0.941 | 0.0357 ± 0.000837
x2 = 0.962 | 0.024 ± 0.000598
x2 = 0.9817 | 0.012 ± 0.000359

CCO [ethanol]
Settings | mass density [kg/m3]
[2] | 785.32 ± 0.71

C=COCCC [propyl vinyl ether] + CC(C)CC(C)(C)C
[1]
Settings | excess molar enthalpy [kcal/mol]
x1 = 0.0715 | 0.0253 ± 0.000621
x1 = 0.1398 | 0.0464 ± 0.00105
x1 = 0.2052 | 0.0635 ± 0.00141
x1 = 0.2678 | 0.0775 ± 0.0017
x1 = 0.3278 | 0.0878 ± 0.00194
x1 = 0.3853 | 0.0954 ± 0.00208
x1 = 0.4406 | 0.1 ± 0.0022
x1 = 0.4937 | 0.103 ± 0.00225
x1 = 0.5448 | 0.103 ± 0.00225
x1 = 0.5939 | 0.101 ± 0.0022
x1 = 0.6413 | 0.097 ± 0.00213
x1 = 0.6869 | 0.0917 ± 0.00201
x1 = 0.7309 | 0.0846 ± 0.00186
x1 = 0.7734 | 0.0758 ± 0.00167
x1 = 0.8144 | 0.0658 ± 0.00146
x1 = 0.854 | 0.0547 ± 0.00122
x1 = 0.8923 | 0.0418 ± 0.000956
x1 = 0.9294 | 0.0277 ± 0.000669
x1 = 0.9653 | 0.0138 ± 0.000382

CCC(C)O (centres undefined) [butan-2-ol]
Settings | mass density [kg/m3]
[2] | 802.57 ± 0.72

CCCCO [butan-1-ol]
Settings | mass density [kg/m3]
[2] | 805.76 ± 0.72

CCCO [propan-1-ol]
Settings | mass density [kg/m3]
[2] | 799.94 ± 0.72

CC(C)O [propan-2-ol]
Settings | mass density [kg/m3]
[2] | 781.32 ± 0.7

C=COCCC [propyl vinyl ether] + CCO
[1]
Settings | excess molar enthalpy [kcal/mol]
x1 = 0.0265 | 0.014 ± 0.000382
x1 = 0.0543 | 0.0284 ± 0.000669
x1 = 0.0836 | 0.0441 ± 0.001
x1 = 0.1145 | 0.0602 ± 0.00134
x1 = 0.147 | 0.0766 ± 0.0017
x1 = 0.1814 | 0.0936 ± 0.00206
x1 = 0.2178 | 0.111 ± 0.00239
x1 = 0.2564 | 0.129 ± 0.00287
x1 = 0.2973 | 0.146 ± 0.00311
x1 = 0.3409 | 0.164 ± 0.00359
x1 = 0.3873 | 0.179 ± 0.00382
x1 = 0.4368 | 0.195 ± 0.0043
x1 = 0.4899 | 0.209 ± 0.00454
x1 = 0.5468 | 0.221 ± 0.00478
x1 = 0.608 | 0.229 ± 0.00502
x1 = 0.6741 | 0.233 ± 0.00502
x1 = 0.7456 | 0.227 ± 0.00478
x1 = 0.8231 | 0.207 ± 0.00454
x1 = 0.9076 | 0.157 ± 0.00335

C=COCCC [propyl vinyl ether]
Settings | mass density [kg/m3]
[2] | 762.96 ± 0.69

CC(C)CC(C)(C)C [2,2,4-trimethylpentane]
Settings | mass density [kg/m3]
[2] | 687.91 ± 0.61
